# In patent US5409953A, “Isolation, structural elucidation and synthesis of novel antineoplastic substances denominated "combretastatins"” (Arizona Board of Regents acting on behalf of Arizona State …, priority 1992, dated 1995):
# Entries after “also recorded” stand apart in the source; their conditions may differ. Where two headings read alike, the source gives them in different places.
# Experiments:
# [1] = system: murine P388 lymphocytic leukemia (PS system); assay: inhibition of PS cell line growth (Ed50); assay type: cell-based; details: for IC50: Mus musculus
# tubulin [2] = details: cited from earlier work
# NCI astrocytoma = NCI astrocytoma bioassay; assay type: cell-based
# tubulin [3] = assay: microtubule assembly (turbidimetric); assay type: biochemical; details: for IC50: Experiment I; for inhibition of microtubule assembly / tubulin polymerization in words: comparison with reference agents
# Protocol: (§1) The assembly reaction at 37° C. was followed turbidimetrically as described by Hamel et al, Biochem. Pharmacal., 32, p.
# tubulin [4] = assay: binding of [3H]colchicine to tubulin; details: Experiment II; for colchicine binding, % of control: 5 μM [3H]colchicine, competing drug at 5 μM, 10 minutes at 37° C.
# Protocol: (§2) Incubation was for 10 minutes at 37° C.
# tubulin [5] = assay: in vitro interactions with tubulin (overall comparison); assay type: biochemical
# Protocol: as §1, §2
# [6] = system: murine P388 lymphocytic leukemia (PS system); assay: PS in vivo life extension; details: 2.75-11 mg/kg dose levels
# [7] = read-out: concentration giving equivalent inhibition of microtubule assembly
# [8] = read-out: ID50, drug concentration inhibiting the extent of microtubule assembly by 50%, 37° C., 1.5 mg/ml tubulin, 0.5 mg/ml microtubule-associated proteins
compound,measurement,setting,value
COc1ccc(/C=C\c2cc(OC)c3c(c2)OCO3)cc1O [Combretastatin A-2],IC50,[1]; P388 (PS) cell line,0.027 µg/mL
"COc1cc(/C=C/c2ccc(OC)c(OC(C)=O)c2OC(C)=O)cc(OC)c1OC [trans-isomer counter part, 2',3'-diacetoxy-4'-methoxy-E-combretastatin A-1]",IC50,[1]; P388 (PS) cell line,12 µg/mL
same,PS cell line activity in words,[1]; P388 (PS) cell line,essentially inactive
COc1cc(CCc2ccc(O)c(O)c2)cc(OC)c1 [Combretastatin B-4],IC50,[1]; P388 (PS) cell line,1.7 µg/mL
"COc1ccc(C[C@@H](O)c2cc(OC)c(OC)c(OC)c2)cc1O [Combretastatin, R(-)-1-(3,4,5-tri-methoxyphenyl)-2-(3'-hydroxy, 4'-methoxyphenyl)-ethanol]",mode of inhibition of binding of radiolabeled colchicine,tubulin [2],competitive inhibitors
same,astrocyte reversal,NCI astrocytoma,pronounced astrocyte reversal
same,IC50,tubulin [3]; [7],11 µM
same,"colchicine binding, % of control",tubulin [4],34 % of control
COc1ccc(/C=C\c2cc(O)c(OC)c(OC)c2)cc1O [Combretastatin A-3],IC50,[1]; P388 (PS) cell line,0.026 µg/mL
COc1ccc(/C=C\c2cc(OC)c(OC)c(OC)c2)c(O)c1O [Combretastatin A-1],IC50,[1]; P388 (PS) cell line,0.99 µg/mL
same,IC50,tubulin [3]; [7],2 µM
same,inhibition of microtubule assembly / tubulin polymerization in words,tubulin [3],more potent than combretastatin and the well known tubulin inhibitors colchicine and podophylotoxin
same,inhibition of microtubule assembly / tubulin polymerization in words,tubulin [3]; listed as combretastatins A-1,comparable to that observed with podophyllotoxin and greater than that observed with colchicine and steganacin
same,concentration completely inhibiting microtubulin assembly in vitro,tubulin [3]; complete inhibition,less than 1.5 μmolar
same,inhibition of binding of (3H)colchicine to tubulin in words,tubulin [4],particularly potent
same,"colchicine binding, % of control",tubulin [4],2.2 % of control
same,interactions with tubulin in words,tubulin [5],more active than combretastatin B-1; also recorded: significantly more potent than the previously described combretastatin
same,increase in life extension,[6],26-29%
"COc1cc([C@@H]2c3cc4c(cc3[C@H](O)[C@H]3COC(=O)[C@H]23)OCO4)cc(OC)c1OC [Podophyllotoxin, reference compound]",mode of inhibition of binding of radiolabeled colchicine,tubulin [2],competitive inhibitors
same,"colchicine binding, % of control",tubulin [4],13 % of control
"COc1cc(CCc2ccc(OC)c(O)c2)cc(OC)c1 [3'-hydroxy-3,4',5-trimethoxy bibenzyl]",IC50,[1]; P388 (PS) cell line,1.7 µg/mL
COc1ccc(CCc2cc(OC)c(OC)c(OC)c2)c(O)c1O [Combretastatin B-1],IC50,[1]; P388 (PS) cell line,1.7 µg/mL
same,IC50,tubulin [3]; [7],3 µM
same,inhibition of microtubule assembly / tubulin polymerization in words,tubulin [3],comparable to that observed with podophyllotoxin and greater than that observed with colchicine and steganacin
same,inhibition of binding of (3H)colchicine to tubulin in words,tubulin [4],particularly potent
same,"colchicine binding, % of control",tubulin [4],13 % of control
same,interactions with tubulin in words,tubulin [5],significantly more potent than the previously described combretastatin
"COc1cc2c(c(OC)c1OC)-c1cc3c(cc1C(OC(C)=O)[C@H]1COC(=O)[C@@H]1C2)OCO3 (stereo partly drawn) [Steganacin, reference compound]",mode of inhibition of binding of radiolabeled colchicine,tubulin [2],competitive inhibitors
same,IC50,tubulin [3]; [8],6 µM
same,"colchicine binding, % of control",tubulin [4],49 % of control
"COc1cc(CCc2ccc(O)cc2)cc(OC)c1OC [4'-hydroxy-3,4,5-trimethoxy bibenzyl]",IC50,[1]; P388 (PS) cell line,0.25 µg/mL
"COc1cc(/C=C\c2ccc(OC)c(OC(C)=O)c2OC(C)=O)cc(OC)c1OC [Combretastatin A-1 d lacerate, 2', 3'-diacetoxy-4'-methoxy-Z-combretastatin A-1]",IC50,[1]; P388 (PS) cell line,2.7 µg/mL
same,activity relative to parent natural product combretastatin A-1,[1]; PS cell line,three-fold less active
COc1cc(CCc2ccc(O)c(O)c2)cc(OC)c1OC [Combretastatin B-3],IC50,[1]; P388 (PS) cell line,0.4 µg/mL
COc1ccc(CCc2cc(O)c(OC)c(OC)c2)cc1O [Combretastatin B-2],IC50,[1]; P388 (PS) cell line,0.32 µg/mL
